Results taken from patent US12636270B2, “Levothyroxine liquid formulations” (Fresenius Kabi USA, LLC, priority 2016, dated 2026).
Like-named read-outs stand apart in the source and are kept apart here.

Key:
[1] = tromethamine 10 mg/mL, normal saline
Procedure: (§1) The HPLC conditions were as follows: • Column: Waters […]™ C8 (5 μm, 4.6×150 mm) HPLC column • Mobile Phase A: Sodium heptanesulfonate/Acetonitrile/Water/Methanol/H3PO4 (4.023 g/800 mL/1600 mL/1600 mL/4 mL) • Mobile Phase B: Sodium heptanesulfonate/Acetonitrile/Water/Methanol/H3PO4 (2.013 g/1000 mL/100 mL/900 mL/2 mL) • Diluent: 0.01 N NaOH • Column temperature: 25° C. • Flow rate: 1.5 mL/min • Injection volume: 40-200 μL • Autosampler temperature: 5° C. • Detection: UV at 225 nm • Separation mode: Gradient Gradient Program:
The effect of pH on levothyroxine stability was further tested in samples having a pH 9.5-11.5. Separate samples containing levothyroxine sodium at a concentration of 20 mcg/mL or 100 mcg/mL, tromethamine at a concentration of 10 mg/mL in normal saline were adjusted to various pH levels. 5 mL of each sample was filled into 10 cc amber tubing vials, and the vials were stoppered with 20 mm stoppers under nitrogen. The samples were stored at temperatures of 25° C., 40° C., and 55° C. The samples stored at 55° C. were analyzed by HPLC at 1 W and 2 W of storage. The samples stored at 25° C. and 40° C. were analyzed by HPLC at 2M of storage using the HPLC conditions described hereinabove.

[2] = 55° C., 1 W, 20 mcg/mL, glycerol 100 mg/mL, normal saline
Procedure: as §1
Separate samples containing levothyroxine sodium at a concentration of 20 mcg/mL and glycerol at a concentration of 100 mg/mL in normal saline were adjusted to pH levels of 7, 8, and 9. 5 mL of each sample was filled into 10 cc amber tubing vials, and the vials were stoppered with 20 mm stoppers under nitrogen. The samples were stored at a temperature of 55° C. The samples were analyzed by HPLC at 1 week of storage using the HPLC conditions described in Example 1. The results for liothyronine, largest unknown impurity, and total impurities as determined by peak area percent are set forth in Table 7.

[3] = 25° C., 2 M, pH 10.4, 20 mcg/mL
[4] = 25° C., 2 M, pH 10.4, 100 mcg/mL
[5] = 25° C., 2 M, pH 11.5, 20 mcg/mL
[6] = 40° C., 2 M, pH 10.4, 20 mcg/mL
[7] = 40° C., 2 M, pH 10.4, 100 mcg/mL
[8] = 40° C., 2 M, pH 11.5, 20 mcg/mL
[9] = 55° C., 1 W, pH 10.4, 20 mcg/mL
[10] = 55° C., 1 W, pH 10.4, 100 mcg/mL
[11] = 55° C., 1 W, pH 11.5, 20 mcg/mL
[12] = 55° C., 2 W, pH 10.4, 20 mcg/mL
[13] = 55° C., 2 W, pH 10.4, 100 mcg/mL
[14] = 55° C., 2 W, pH 11.5, 20 mcg/mL

N[C@@H](Cc1cc(I)c(Oc2cc(I)c(O)c(I)c2)c(I)c1)C(=O)[O-].[Na+] [Levothyroxine Na, 4-(4-hydroxy-3,5-diiodophenoxy)-3,5-diiodo-L-phenylalanine sodium]
% Liothyronine ([1]; 25° C., 2 M, pH 9.5, 20 mcg/mL): 0.34% | % largest unknown impurity ([1]; 25° C., 2 M, pH 9.5, 20 mcg/mL): 0.11% | % total impurities ([1]; 25° C., 2 M, pH 9.5, 20 mcg/mL): 0.7% | % Liothyronine [1, 3]: 0.17% | % largest unknown impurity [1, 3]: 0.20% | % total impurities [1, 3]: 0.6% | % Liothyronine [1, 4]: 0.23% | % largest unknown impurity [1, 4]: 0.11% | % total impurities [1, 4]: 0.6% | % Liothyronine [1, 5]: 0.34% | % largest unknown impurity [1, 5]: 15.4% | % total impurities [1, 5]: 19.6% | % Liothyronine ([1]; 40° C., 2 M, pH 9.5, 20 mcg/mL): 1.00% | % largest unknown impurity ([1]; 40° C., 2 M, pH 9.5, 20 mcg/mL): 0.14% | % total impurities ([1]; 40° C., 2 M, pH 9.5, 20 mcg/mL): 1.44% | % Liothyronine [1, 6]: 0.38% | % largest unknown impurity [1, 6]: 0.22% | % total impurities [1, 6]: 0.88% | % Liothyronine [1, 7]: 0.49% | % largest unknown impurity [1, 7]: 0.10% | % total impurities [1, 7]: 0.8% | % Liothyronine [1, 8]: 0.31% | % largest unknown impurity [1, 8]: 9.2% | % total impurities [1, 8]: 12.1% | % Liothyronine ([1]; 55° C., 1 W, pH 9.5, 20 mcg/mL): 0.9% | % largest unknown impurity ([1]; 55° C., 1 W, pH 9.5, 20 mcg/mL): 0.09% | % total impurities ([1]; 55° C., 1 W, pH 9.5, 20 mcg/mL): 1.2% | % Liothyronine [1, 9]: 0.2% | % largest unknown impurity [1, 9]: 0.09% | % total impurities [1, 9]: 0.5% | % Liothyronine [1, 10]: 0.3% | % largest unknown impurity [1, 10]: 0.11% | % total impurities [1, 10]: 0.7% | % Liothyronine [1, 11]: 0.1% | % largest unknown impurity [1, 11]: 0.08% | % total impurities [1, 11]: 0.4% | % Liothyronine ([1]; 55° C., 2 W, pH 9.5, 20 mcg/mL): 1.9% | % largest unknown impurity ([1]; 55° C., 2 W, pH 9.5, 20 mcg/mL): 0.1% | % total impurities ([1]; 55° C., 2 W, pH 9.5, 20 mcg/mL): 2.0% | % Liothyronine [1, 12]: 0.4% | % largest unknown impurity [1, 12]: 0.1% | % total impurities [1, 12]: 0.9% | % Liothyronine [1, 13]: 0.8% | % largest unknown impurity [1, 13]: 0.11% | % total impurities [1, 13]: 1.1% | % Liothyronine [1, 14]: 0.2% | % largest unknown impurity [1, 14]: 0.1% | % total impurities [1, 14]: 0.4% | % Liothyronine ([2]; pH 7): 3.6% | % largest unknown impurity ([2]; pH 7): 1.16% | % total impurities ([2]; pH 7): 5.3% | % Liothyronine ([2]; pH 8): 3.4% | % largest unknown impurity ([2]; pH 8): 1.30% | % total impurities ([2]; pH 8): 5.4% | % Liothyronine ([2]; pH 9): 2.4% | % largest unknown impurity ([2]; pH 9): 0.82% | % total impurities ([2]; pH 9): 3.8%
